Measured values reported in patent US20240246941A1, “SUBSTITUTED 4-(3-AMINOPROP-1-YL)AMINOQUINOLINE ANALOGS AS MODULATORS OF MELANOMA-ASSOCIATED ANTIGEN 11 UBIQUITIN LIGASE” (ST. JUDE CHILDREN'S RESEARCH HOSPITAL, INC., priority 2020, published 2024).
Entries after “also recorded” stand apart in the source; their conditions may differ. Read-outs that look alike come from different tables or passages of the source.

Experiments:
[1] = molecular target: interaction between GST-MAGEA11 MHD and FAM-PCF11_4 peptide (MAGE-A11:PCF11) (Homo sapiens (Human), UniProt P43364); assay: TR-FRET dose response competition assay for disruption of MAGE-A11:PCF11 binding; conditions: read-out: IC50 by TR-FRET for disrupting MAGE-A11:PCF11 interaction
Sequence of interaction between GST-MAGEA11 MHD and FAM-PCF11_4 peptide (MAGE-A11:PCF11) (P43364 218-429): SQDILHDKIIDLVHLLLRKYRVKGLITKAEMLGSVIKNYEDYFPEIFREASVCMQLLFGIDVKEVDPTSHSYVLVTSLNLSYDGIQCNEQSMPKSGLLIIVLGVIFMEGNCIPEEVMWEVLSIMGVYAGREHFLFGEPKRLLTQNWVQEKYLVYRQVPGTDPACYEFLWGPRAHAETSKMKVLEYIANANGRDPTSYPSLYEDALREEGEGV
Procedure, shortened: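 Competition TR-FRET at room temperature in 50 mM Tris pH 7.5, 20 mM MgCl2, 0.1 mg/ml BSA, 1 mM DTT: final 5 nM GST-MAGEA11 MHD, 5 nM Tb-anti-GST, 200 nM FAM-PCF11_4, 90 min. Ratio 520/490 nm converted to % inhibition; IC50 from sigmoidal fit.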

[2] = High throughput Caco-2 permeability; type: in vitro ADME; conditions: human, 10 μmol/l, 2 h, 37° C.
Procedure: High throughput Caco-2 permeability was performed in the TranswellR 0.4 μm polycarbonate membrane 96-well system with modified methods. Caco-2 cells were maintained at 37° C. in a humidified incubator with an atmosphere of 5% CO2. The cells were cultured in 75 cm^2 flasks with Dulbecco's Modified Eagle's Medium (DMEM) containing 10% (v/v) FBS, 1% (v/v) non-essential amino acids (NEAA), 100 units/ml of penicillin, and 100 μg/ml of streptomycin. The Caco-2 cells were seeded onto inserts at a density of 2×10^4 cells/insert separately. The medium in the wells was exchanged each other day, and the trans epithelial electrical resistance (TEER) value was measured using an epithelial voltohm meter (Millipore, Billerica, Massachusetts). […] For transport experiments, each cultured monolayer on the 96-well plate was washed twice with a transport buffer (HBSS containing 25 mM HEPES, pH 7.4). The permeability assay was initiated by the addition of each compound solution (10 μmol/l) into inserts (apical side, A) or receivers (basolateral side, B). The Caco-2 cell monolayers were incubated for 2 h at 37° C. Fractions were collected from receivers (if apical to basal permeability) or inserts (if basal to apical permeability), and concentrations were assessed by UPLC/MS (Waters; Milford, MA). All compounds were tested in triplicates. The A→B (or B→A) apparent permeability coefficients (Papp) of each compound were calculated using the equation, Papp=dQ/dt×1/AC0, where dQ/dt equals the flux of a drug across the monolayer, A equals the total insert well surface area, and C0 is the initial concentration of substrate in the donor compartment. The efflux ratio was determined by dividing the Papp in the B-A direction by the Papp in the A-B direction.

[3] = system: HEK293FT cells stably expressing FLAG-vector or FLAG-MAGE-A11; assay: Cell viability alamarBlue assay, HEK293FT cells; type: cell-based; conditions: MAGE-A11 expressing HEK293FT cells versus vector control, 24 hours, listed as SJ521054
Procedure: Cell viability Assay. To assess cell viability after SJ521054 treatment, 1×10^4 cells/ml were treated with SJ521054 (0-40 μM) and incubated for 24 hours prior to changing the media and adding alamarBlue (Thermo Fisher Scientific) and incubating for 4 hours at 37° C. Plates were read by measuring the fluorescence with excitation wavelength at 540 nm and emission wavelength at 590 nm on an Enspire plate reader.

## FC(F)(F)c1ccc2c(NCCCNCc3ccc4[nH]ccc4c3)ccnc2c1 [SJ000521054-02, N^1-((1H-Indol-5-yl)methyl)-N^3-(7-(trifluoromethyl)quinolin-4-yl)propane-1,3-diamine]
[1]
  IC50: 0.4 µM
[2]; Caco-2, pH 7.4, apical to basolateral, read-out: Caco-2 permeability, A/B
  Papp at 2 h, 10 μmol/l: 11.5 ×10⁻⁶ cm/s
[2]; Caco-2, pH 7.4, basolateral to apical, read-out: Caco-2 permeability, B/A
  Papp at 2 h, 10 μmol/l: 14.2 ×10⁻⁶ cm/s
[3]
  cell viability: decreased the viability; also recorded: reduces viability of MAGE-A11 expressing HEK293FT cells
